How the values were obtained:
[1] = biological target: T1, ligand binding domain of human FXR (Homo sapiens, UniProt Q96RI1); assay: biochemical; conditions: for Emax: extent of activation relative to GW4064, read-out: Ligand Binding % Efficacy; for EC50: −log EC50, concentration required to produce 50% activation, FRET 520 nm/495 nm, 1 hour at room temperature, read-out: Ligand Binding pEC50 (converted)
T1 construct: purchased Thermofisher (LanthaScreen) PV4833
T1 sequence (Q96RI1 262-486 limits assumed): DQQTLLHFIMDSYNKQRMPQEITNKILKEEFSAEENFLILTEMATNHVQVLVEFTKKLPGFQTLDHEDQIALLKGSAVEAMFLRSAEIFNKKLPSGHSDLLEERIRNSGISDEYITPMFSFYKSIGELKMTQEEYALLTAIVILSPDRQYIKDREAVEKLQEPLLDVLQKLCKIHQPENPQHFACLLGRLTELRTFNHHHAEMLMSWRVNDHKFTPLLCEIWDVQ
Description: The affinity of FXR ligands for the ligand binding domain of FXR was determined using a commercially available human FXR ligand binding assay (LanthaScreen, Thermofisher Cat #PV4833). […] Binding of FXR ligands to the FXR ligand binding domain promotes binding of the fluorescein-labelled SRC2-2 peptide. This causes a FRET signal between the terbium-labelled anti-GST antibody and the fluorescein-labelled SRC peptide which are both bound to the FXR ligand binding domain.
Test compounds are dissolved in DMSO and a 3-fold serial dilution series is generated, then further diluted into assay buffer. The compounds are mixed with 5 nM GST-tagged FXR ligand binding domain, 5 nM Tb-labelled anti-GST antibody and 500 nM fluorescein-labelled SRC2-2 peptide in a pH7.4 buffer. The reaction is incubated at room temperature for 1 hour, then the FRET signal is measured as the ratio of the 520 nm/495 nm emission following excitation at 340 nm. The change in FRET signal is plotted against the test article concentration and fit to a 3-parameter logistical equation.

[2] = biological target: T2, human Farnesoid X receptor ligand-binding domain/Gal4 DNA binding domain chimera (Homo sapiens, UniProt Q96RI1); assay: Cell-based assay of FXR activation (FXR-UAS-bla HEK 293T beta-lactamase reporter); conditions: for Emax: HEK-293T, read-out: Cellular % Efficacy
T2 construct: host or cells: FXR-UAS-bla HEK 293T (CellSensor UAS-bla HEK 293T)
T2 sequence (Q96RI1 262-486 limits assumed): T1 sequence (Q96RI1 262-486 limits assumed)
Description: FXR activation was measured using a cell line and procedure obtained from Life Technologies (Cat #K1691). […] Activation of FXR by bound ligands results in transcriptional activation of the beta-lactamase reporter gene, which is detected via assay of beta-lactamase activity.
Cells are harvested and diluted into assay medium containing phenol red-free DMEM supplemented with 2% Charcoal-stripped FBS, pyruvate, non-essential amino acids. Cells are then transferred to a 384 well assay plate. Test compounds are dissolved in DMSO and a 3-fold serial dilution series is generated, then further diluted into assay medium. Compounds in assay medium are added to cells in the 384 well plate and allowed to incubate 16 h at 37 C in the presence of 5% CO2.
A FRET-based […] (CCF4) is loaded into cells as its acetomethoxy ester. Intracellular esterases liberate free CCF4, a cephalosporin core linking 7-hydroxycoumarin to fluorescein. In the presence of beta-lactamase activity produced in the presence of FXR agonists, cleavage of CCF4 spatially separates the two dyes and disrupts FRET, so that exciting the coumarin at 409 nm now produces a blue fluorescence signal at 447 nm. The change in FRET signal is plotted against the test compound concentration and fit to a 3-parameter logistical equation.

## O=C(O)CCc1ccc(N2C[C@@H]3C[C@H]2C[C@H]3OCc2c(C3CC3)nnn2-c2c(Cl)cccc2Cl)cc1F [Compound I-55, 3-{4-[(1S,4S,5R)-5-{[4-cyclopropyl-1-(2,6-dichlorophenyl)-1H-1,2,3-triazol-5-yl]methoxy}-2-azabicyclo[2.2.1]heptan-2-yl]-2-fluorophenyl}propanoic acid]
[1]
  Emax: 147%
  EC50: 0.0631 µM
[2]
  EC50: 0.0158 µM
  Emax: 91%

## O=C(O)c1ccc(N2C[C@@H]3C[C@H]2C[C@H]3OCc2c(C3CC3)cnn2-c2c(F)cccc2F)cc1F [Compound I-10, 4-[(1S,4S,5R)-5-{[4-cyclopropyl-1-(2,6-difluorophenyl)-1H-pyrazol-5-yl]methoxy}-2-azabicyclo[2.2.1]heptan-2-yl]-2-fluorobenzoic acid]
[1]
  Emax: 164%
  EC50: 0.158 µM
[2]
  EC50: 0.0316 µM
  Emax: 118%

## O=C(O)c1cc(OC(F)(F)F)c2nc(N3C[C@@H]4C[C@H]3C[C@H]4OCc3c(-c4c(Cl)cccc4Cl)nnn3C3CC3)sc2c1 [Compound I-63, 2-[(1S,4S,5R)-5-{[1-cyclopropyl-4-(2,6-dichlorophenyl)-1H-1,2,3-triazol-5-yl]methoxy}-2-azabicyclo[2.2.1]heptan-2-yl]-4-(trifluoromethoxy)-1,3-benzothiazole-6-carboxylic acid]
[1]
  Emax: 180%
  EC50: 0.0126 µM
[2]
  EC50: 0.0126 µM
  Emax: 103%

## O=C(O)c1cc([C@H]2CCOC2)c2nc(N3C[C@@H]4C[C@H]3C[C@H]4OCc3c(-c4c(Cl)cccc4Cl)nnn3C3CC3)sc2c1 (single isomer, unassigned) [Compound I-65]
[1]
  Emax: 136%
  EC50: 0.0251 µM
[2]
  EC50: 0.01 µM
  Emax: 108%

## O=C(NS(=O)(=O)C1CCOCC1)c1ccc(N2C[C@@H]3C[C@H]2C[C@H]3OCc2c(-c3c(Cl)cccc3Cl)cnn2C2CC2)cc1 [Compound I-46, 4-[(1S,4S,5R)-5-{[1-cyclopropyl-4-(2,6-dichlorophenyl)-1H-pyrazol-5-yl]methoxy}-2-azabicyclo[2.2.1]heptan-2-yl]-N-(oxane-4-sulfonyl)benzamide]
[1]
  Emax: 170%
  EC50: 0.1 µM
[2]
  EC50: < 0.0316 µM

## O=C(O)CCc1ccc(N2C[C@@H]3C[C@H]2C[C@H]3OCc2c(-c3c(Cl)cccc3Cl)cnn2C2CC2)cc1 [Compound I-43, 3-{4-[(1S,4S,5R)-5-{[1-cyclopropyl-4-(2,6-dichlorophenyl)-1H-pyrazol-5-yl]methoxy}-2-azabicyclo[2.2.1]heptan-2-yl]phenyl}propanoic acid]
[1]
  EC50: < 0.316 µM
[2]
  EC50: < 0.0316 µM

## O=C(O)c1cc(OC2CC2)c2nc(N3C[C@@H]4C[C@H]3C[C@H]4OCc3c(-c4c(Cl)cccc4Cl)cnn3C3CC3)sc2c1 [Compound I-48, 4-cyclopropoxy-2-[(1S,4S,5R)-5-{[1-cyclopropyl-4-(2,6-dichlorophenyl)-1H-pyrazol-5-yl]methoxy}-2-azabicyclo[2.2.1]heptan-2-yl]-1,3-benzothiazole-6-carboxylic acid]
[1]
  Emax: 88%
  EC50: 0.0398 µM
[2]
  EC50: 0.02 µM
  Emax: 101%

## O=C(O)c1ccc(N2C[C@@H]3C[C@H]2C[C@H]3OCc2c(-c3c(Cl)cccc3Cl)nnn2C2CC2)cc1 [Compound I-70, 4-[(1S,4S,5R)-5-{[1-cyclopropyl-4-(2,6-dichlorophenyl)-1H-1,2,3-triazol-5-yl]methoxy}-2-azabicyclo[2.2.1]heptan-2-yl]benzoic acid]
[1]
  Emax: 155%
  EC50: 0.0631 µM
[2]
  EC50: 0.0398 µM
  Emax: 106%

## O=C(O)c1cc(C2CCOCC2)c2nc(N3C[C@@H]4C[C@H]3C[C@H]4OCc3c(C4CC4)cnn3-c3c(Cl)cccc3Cl)sc2c1 [Compound I-32, 2-[(1S,4S,5R)-5-{[4-cyclopropyl-1-(2,6-dichlorophenyl)-1H-pyrazol-5-yl]methoxy}-2-azabicyclo[2.2.1]heptan-2-yl]-4-(oxan-4-yl)-1,3-benzothiazole-6-carboxylic acid]
[1]
  Emax: 128%
  EC50: 0.00251 µM
[2]
  EC50: 0.001 µM
  Emax: 101%

## O=C(O)c1cc(OC2CC2)c2nc(N3C[C@@H]4C[C@H]3C[C@H]4OCc3c(-c4c(Cl)cccc4Cl)nnn3C3CC3)sc2c1 [Compound I-64, 4-cyclopropoxy-2-((1S,4S,5R)-5-((1-cyclopropyl-4-(2,6-dichlorophenyl)-1H-1,2,3-triazol-5-yl)methoxy)-2-azabicyclo[2.2.1]heptan-2-yl)benzo[d]thiazole-6-carboxylic acid]
[1]
  Emax: 172%
  EC50: 0.00501 µM
[2]
  EC50: 0.01 µM
  Emax: 113%

## O=C(O)c1cc(O[C@@H]2CCOC2)c2nc(N3C[C@@H]4C[C@H]3C[C@H]4OCc3c(C4CC4)nnn3-c3c(Cl)cccc3Cl)sc2c1 [Compound I-62, 2-[(1S,4S,5R)-5-{[4-cyclopropyl-1-(2,6-dichlorophenyl)-1H-1,2,3-triazol-5-yl]methoxy}-2-azabicyclo[2.2.1]heptan-2-yl]-4-[(3R)-oxolan-3-yloxy]-1,3-benzothiazole-6-carboxylic acid]
[1]
  Emax: 158%
  EC50: 0.00398 µM
[2]
  EC50: 0.0251 µM
  Emax: 106%

## O=C(O)c1cc(C2CCC2)c2nc(N3C[C@@H]4C[C@H]3C[C@H]4OCc3c(-c4c(Cl)cccc4Cl)nnn3C3CC3)sc2c1 [Compound I-68, 4-cyclobutyl-2-[(1S,4S,5R)-5-{[1-cyclopropyl-4-(2,6-dichlorophenyl)-1H-1,2,3-triazol-5-yl]methoxy}-2-azabicyclo[2.2.1]heptan-2-yl]-1,3-benzothiazole-6-carboxylic acid]
[1]
  Emax: 178%
  EC50: 0.00398 µM
[2]
  EC50: 0.00158 µM
  Emax: 106%

## O=C(O)c1ccc(N2C[C@@H]3C[C@H]2C[C@H]3OCc2c(C3CC3)nnn2-c2c(Cl)cccc2Cl)cc1F [Compound I-53, 4-[(1S,4S,5R)-5-{[4-cyclopropyl-1-(2,6-dichlorophenyl)-1H-1,2,3-triazol-5-yl]methoxy}-2-azabicyclo[2.2.1]heptan-2-yl]-2-fluorobenzoic acid]
[1]
  Emax: 170%
  EC50: 0.00631 µM
[2]
  EC50: 0.00398 µM
  Emax: 92%

## O=C(O)c1cc([C@H]2CCOC2)c2nc(N3C[C@@H]4C[C@H]3C[C@H]4OCc3c(C4CC4)nnn3-c3c(Cl)cccc3Cl)sc2c1 (single isomer, unassigned) [Compound I-58]
[1]
  Emax: 145%
  EC50: 0.002 µM
[2]
  EC50: 0.001 µM
  Emax: 102%

## O=C(O)CCc1ccc(N2C[C@@H]3C[C@H]2C[C@H]3OCc2c(C3CC3)nnn2-c2c(Cl)cccc2Cl)c(F)c1 [Compound I-54, 3-{4-[(1S,4S,5R)-5-{[4-cyclopropyl-1-(2,6-dichlorophenyl)-1H-1,2,3-triazol-5-yl]methoxy}-2-azabicyclo[2.2.1]heptan-2-yl]-3-fluorophenyl}propanoic acid]
[1]
  Emax: 152%
  EC50: 0.02 µM
[2]
  EC50: 0.0126 µM
  Emax: 100%

## O=C(O)c1ccc(N2C[C@@H]3C[C@H]2C[C@H]3OCc2c(C3CC3)cnn2-c2c(Cl)cccc2Cl)cc1 [Compound I-1, 4-[(1S,4S,5R)-5-{[4-cyclopropyl-1-(2,6-dichlorophenyl)-1H-pyrazol-5-yl]methoxy}-2-azabicyclo[2.2.1]heptan-2-yl]benzoic acid]
[1]
  Emax: 121%
  EC50: 0.00631 µM
[2]
  EC50: 0.00158 µM
  Emax: 110%

## O=C(O)c1cc(F)c2nc(N3C[C@@H]4C[C@H]3C[C@H]4OCc3c(C4CC4)cnn3-c3c(Cl)cccc3Cl)sc2c1 [Compound I-30, 2-[(1S,4S,5R)-5-{[4-cyclopropyl-1-(2,6-dichlorophenyl)-1H-pyrazol-5-yl]methoxy}-2-azabicyclo[2.2.1]heptan-2-yl]-4-fluoro-1,3-benzothiazole-6-carboxylic acid]
[1]
  Emax: 151%
  EC50: 0.0158 µM
[2]
  EC50: 0.00158 µM
  Emax: 106%

## O=C(NS(=O)(=O)C1CCOCC1)c1ccc(N2C[C@@H]3C[C@H]2C[C@H]3OCc2c(C3CC3)nnn2-c2c(Cl)cccc2Cl)cc1 [Compound I-56, 4-[(1S,4S,5R)-5-{[4-cyclopropyl-1-(2,6-dichlorophenyl)-1H-1,2,3-triazol-5-yl]methoxy}-2-azabicyclo[2.2.1]heptan-2-yl]-N-(oxane-4-sulfonyl)benzamide]
[1]
  Emax: 180%
  EC50: 0.002 µM
[2]
  EC50: 0.01 µM
  Emax: 104%
